According to patent US6479531B1, “Gastrin and cholecystokinin receptor ligands” (James Black Foundation Limited, priority 1998, dated 2002):

Biological target: T1, CCKB receptor (Mus musculus, UniProt P56481)
T1 construct: The whole brains from male mice (CD1 22-25 g; Charles River) were removed; from tissue; host or cells: cerebral cortex membranes of male CD1 mice
T1 sequence (P56481 1-453): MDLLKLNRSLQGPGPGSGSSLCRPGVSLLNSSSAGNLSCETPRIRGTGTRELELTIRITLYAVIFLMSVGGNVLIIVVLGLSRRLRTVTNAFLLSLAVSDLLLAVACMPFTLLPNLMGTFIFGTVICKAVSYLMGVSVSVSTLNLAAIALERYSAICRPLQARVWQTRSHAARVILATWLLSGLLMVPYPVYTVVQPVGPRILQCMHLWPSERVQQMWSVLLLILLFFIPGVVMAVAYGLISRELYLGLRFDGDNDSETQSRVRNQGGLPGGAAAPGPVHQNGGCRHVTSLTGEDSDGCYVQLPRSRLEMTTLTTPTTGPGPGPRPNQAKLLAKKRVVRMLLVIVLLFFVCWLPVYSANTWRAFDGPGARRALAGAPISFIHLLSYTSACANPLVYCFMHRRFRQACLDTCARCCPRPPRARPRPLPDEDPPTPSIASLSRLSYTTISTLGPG
Experiment: CCKB receptor radioligand binding assay in mouse cortical membranes
Details: [125I]-CCK8(S) 200 pM, 150 min at 21±3°; for Ki: read-out: CCKB pKi (converted)
Experimental: The compounds of the examples were tested for binding at the CCKB receptor in mouse cortical membranes by means of a radioligand binding assay. The procedure was as follows:
The whole brains from male mice (CD1 22-25 g; Charles River) were removed and placed in ice-cold buffer (pH 7.2 @ 21±3°) of the following composition (mM); 10 HEPES, 130 NaCl, 4.7 KCl, 5 MgCl2, 1 EDTA and containing 0.25 gl^−1 bacitracin. The cortex was dissected, weighed and homogenised in 40 ml ice-cold buffer using a Teflon-in-glass homogeniser. The homogenate was centrifuged at 39800 g for 20 min […], the supernatant discarded and the pellet resuspended by homogenisation in fresh buffer. The homogenate was recentrifuged (39800 g, 20 min @ 4°) and the final pellet was resuspended in HEPES buffer to give a tissue concentration of 20 mg ml^−1 (original wet weight).
The assay was terminated by rapid filtration through pre-soaked Whatman GF/B filters using a Brandell Cell Harvester. The filters were washed (3×3 ml) with ice-cold 50 mM Tris-HCl (pH 7.4 @ 4° C.) and bound radioactivity determined by counting (1 min) in a gamma-counter.

Row | Molecule | Ki [nM] | CCKB pKi
1 | Cc1ccccc1-c1nc(C(=O)Nc2cc(C(=O)O)ccc2Cl)c(CCC23CC4CC(CC(C4)C2)C3)[nH]1 [Example 237, 3-{[5-(2-Adamantan-1-yl-ethyl)-2-o-tolyl-1H-imidazole-4-carbonyl]-amino}-4-chloro-benzoic Acid] | 7590 | –
2 | CN(C)c1ccc(-c2nc(C(=O)Nc3cc(C(=O)O)cc(C(=O)O)c3)c(CC3CCCCCC3)[nH]2)cc1 [Example 31, 5-[(5-Cycloheptylmethyl-2-(4-dimethylamino-phenyl)-1H-imidazole-4-carbonyl)-amino]-isophthalic Acid] | 1660 | –
3 | O=C(Nc1cc(-c2nnn[nH]2)cc(-c2nnn[nH]2)c1)c1cc(-c2ccc3ccccc3c2)[nH]c1CC1CCCCCC1 [Example 15, 2-Cycloheptylmethyl-5-naphthalen-2-yl-1H-pyrrole-3-carboxylic Acid [3,5-bis-(1H-tetrazol-5-yl)-phenyl]-amide] | 182 | –
4 | O=C(O)c1cccc(NC(=O)c2nc(C34CC5CC(CC(C5)C3)C4)[nH]c2CCC23CC4CC(CC(C4)C2)C3)c1 [Example 109, 3-{[2-Adamantan-1-yl-5-(2-adamantan-1-yl-ethyl)-1H-imidazole-4-carbonyl]-amino}-benzoic Acid] | 44.7 | –
5 | O=C(O)c1cccc(NC(=O)c2nc(C3CCCCCCCCCCC3)[nH]c2CCC23CC4CC(CC(C4)C2)C3)c1 [Example 127, 3-{[5-(2-Adamantan-1-yl-ethyl)-2-cyclododecyl-1H-imidazole-4-carbonyl]-amino}-benzoic Acid] | 1700 | –
6 | O=C(O)c1cccc(NC(=O)c2nc(C(C3CCCCC3)C3CCCCC3)[nH]c2CCC23CC4CC(CC(C4)C2)C3)c1 [Example 128, 3-{[5-(2-Adamanatan-1-yl-ethyl)-2-dicyclohexylmethyl-1H-imidazole-4-carbonyl]-amino}-benzoic Acid] | 2140 | –
7 | Cc1ccccc1-c1nc(C(=O)Nc2ccc(F)c(C(=O)O)c2F)c(CCC23CC4CC(CC(C4)C2)C3)[nH]1 [Example 248, 3-{[5-(2-Adamantan-1-yl-ethyl)-2-o-tolyl-1H-imidazole-4-carbonyl]-amino}-2,6-difluoro-benzoic Acid] | 25.7 | –
8 | Cc1ccccc1-c1nc(C(=O)Nc2ccc(CC(=O)O)cc2)c(CCC23CC4CC(CC(C4)C2)C3)[nH]1 [Example 99] | 186 | –
9 | O=C(O)c1cccc(NC(=O)c2cc(-c3ccccc3)[nH]c2CC23CC4CC(CC(C4)C2)C3)c1 [Example 3, 3-[(2-Adamantan-1-ylmethyl-5-phenyl-1H-pyrrole-3-carbonyl)-amino]-benzoic Acid] | 1450 | –
10 | Cc1ccccc1-c1nc(C(=O)N2CCCC(C(=O)O)C2)c(CCC23CC4CC(CC(C4)C2)C3)[nH]1 (racemic) [Example 93, (±)-1-[5-(2-Adamantan-1-yl-ethyl)-2-o-tolyl-1H-imidazole-4-carbonyl]-piperidine-3-carboxylic Acid] | 2510 | –
11 | O=C(O)c1cc(NC(=O)c2nc[nH]c2CC2CCCCCC2)cc(C(=O)O)c1 [Example 35, 5-[(5-Cycloheptylmethyl-1H-imidazole-4-carbonyl)-amino]-isophthalic Acid] | 3890 | –
12 | 5-[(2-Adamantan-1-ylmethyl-5-phenyl-1H-pyrrole-3-carbonyl)-amino-methyl]-isophthalic Acid [Example 9] | – | 5.88
13 | O=C(O)c1cccc(NC(=O)c2nc(-c3ccccc3)[nH]c2CCC2CCCCCC2)c1 [Example 38, 3-{[5-(2-Cycloheptyl-ethyl)-2-phenyl-1H-imidazole-4-carbonyl]-amino}-benzoic Acid] | 1120 | –
14 | O=C(O)c1cccc(NC(=O)c2nc(C3CCCCC3)[nH]c2CCc2ccccc2)c1 [Example 88, 3-[(2-Cyclohexyl-5-phenethyl-1H-imidazole-4-carbonyl)-amino]-benzoic Acid] | 6610 | –
15 | Cn1c(-c2ccccc2)cc(C(=O)Nc2cc(C(=O)O)cc(C(=O)O)c2)c1CC12CC3CC(CC(C3)C1)C2 [Example 8, 5-[(2-Adamantan-1-ylmethyl-1-methyl-5-phenyl-1H-pyrrole-3-carbonyl)-amino]-isophthalic Acid] | 1020 | –
16 | Cc1ccccc1-c1nc(C(=O)Nc2cccc(C(=O)O)c2)c(CC23CC4CC(CC(C4)C2)C3)[nH]1 [Example 170, 3-[(5-Adamantan-1-ylmethyl-2-o-tolyl-1H-imidazole-4-carbonyl)-amino]-benzoic Acid] | 1450 | –
17 | COc1ccc(-c2nc(C(=O)Nc3cc(C(=O)O)cc(C(=O)O)c3)c(CC3CCCCCC3)[nH]2)cc1 [Example 29, 5-[(5-Cycloheptylmethyl-2-(4-methoxy-phenyl)-1H-imidazole-4-carbonyl)-amino]-isophthalic Acid] | 1480 | –
18 | Cc1ccccc1-c1nc(C(=O)Nc2cccc(CC(=O)O)c2)c(CCC23CC4CC(CC(C4)C2)C3)[nH]1 [Example 83, (3-{[5-(2-Adamantan-1-yl-ethyl)-2-o-tolyl-1H-imidazole-4-carbonyl]-amino}-phenyl)-acetic Acid] | 2.24 | –
19 | O=C(O)c1cc(NC(=O)c2nc(-c3ccccc3)[nH]c2CCC2CCCCCC2)cc(C(=O)O)c1 [Example 39, 5-{[5-(2-Cycloheptyl-ethyl)-2-phenyl-1H-imidazole-4-carbonyl]-amino}-isophthalic Acid] | 2040 | –
20 | O=C(O)c1cccc(NC(=O)c2nc(-c3ccccc3O)[nH]c2CCC23CC4CC(CC(C4)C2)C3)c1 [Example 64, 3-{[5-(2-Adamantan-1-yl-ethyl)-2-(2-hydroxy-phenyl)-1H-imidazole-4-carbonyl]-amino}-benzoic Acid] | 1380 | –
21 | O=C(Nc1cc(-c2nnn[nH]2)cc(-c2nnn[nH]2)c1)c1cc(-c2ccc3ccccc3c2)[nH]c1CC12CC3CC(CC(C3)C1)C2 [Example 5, 2-Adamantan-1-ylmethyl-5-naphthalen-2-yl-1H-pyrrole-3-carboxylic Acid [3,5-bis-(1H-tetrazol-5-yl)-phenyl]-amide] | 229 | –
22 | O=C(O)CNC(=O)c1nc(-c2ccccc2F)[nH]c1CCC12CC3CC(CC(C3)C1)C2 [Example 53, 2-{[5-(2-Adamantan-1-yl-ethyl)-2-(2-fluoro-phenyl)-1H-imidazole-4-carbonyl]-amino}-acetic Acid] | 1660 | –
23 | O=C(O)c1ccc(NC(=O)c2nc(-c3ccccc3F)[nH]c2CCC23CC4CC(CC(C4)C2)C3)cc1 [Example 51, 4-{[5-(2-Adamantan-1-yl-ethyl)-2-(2-fluoro-phenyl)-1H-imidazole-4-carbonyl]-amino}-benzoic Acid] | 2630 | –
24 | Cc1ccc(C(=O)O)cc1NC(=O)c1nc(-c2ccccc2C)[nH]c1CCC12CC3CC(CC(C3)C1)C2 [Example 239, 3-{[5-(2-Adamantan-1-yl-ethyl)-2-o-tolyl-1H-imidazole-4-carbonyl]-amino}-4-methyl-benzoic Acid] | 2000 | –
25 | O=C(O)c1cc(NC(=O)c2nc(-c3ccccc3C(F)(F)F)[nH]c2CCC2CCCCCC2)cc(C(=O)O)c1 [Example 41, 5-{[5-(2-Cycloheptyl-ethyl)-2-(2-trifluoromethyl-phenyl)-1H-imidazole-4-carbonyl]-amino}-isophthalic Acid] | 4370 | –
